Test results taken from patent US20230312528A1, “2-OXO-IMIDAZOLIDINE-4-CARBOXAMIDES AS NAV1.8 INHIBITORS” (Merck Sharp & Dohme LLC, priority 2020, published 2023).

Target: human NaV1.8 (Homo sapiens (Human), UniProt Q9Y5Y9)
Experiment: Nav1.8 Qube automated patch-clamp assay
Assay type: cell-based
Conditions: human NaV1.8 stably expressed in HEK 293 cells; automated 384-well patch-clamp; resting or inactivated state not specified
Procedure, shortened: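 Human NaV1.8 in HEK293 cells, automated whole-cell patch clamp at room temperature: 1 Hz train of ten 20 ms pulses to 10 mV from −90 mV, repolarization to −67 mV. First- and tenth-pulse peak currents gave resting and inactivated-state IC50 values via Hill fits.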

human NaV1.8, sequence (Q9Y5Y9 whole entry): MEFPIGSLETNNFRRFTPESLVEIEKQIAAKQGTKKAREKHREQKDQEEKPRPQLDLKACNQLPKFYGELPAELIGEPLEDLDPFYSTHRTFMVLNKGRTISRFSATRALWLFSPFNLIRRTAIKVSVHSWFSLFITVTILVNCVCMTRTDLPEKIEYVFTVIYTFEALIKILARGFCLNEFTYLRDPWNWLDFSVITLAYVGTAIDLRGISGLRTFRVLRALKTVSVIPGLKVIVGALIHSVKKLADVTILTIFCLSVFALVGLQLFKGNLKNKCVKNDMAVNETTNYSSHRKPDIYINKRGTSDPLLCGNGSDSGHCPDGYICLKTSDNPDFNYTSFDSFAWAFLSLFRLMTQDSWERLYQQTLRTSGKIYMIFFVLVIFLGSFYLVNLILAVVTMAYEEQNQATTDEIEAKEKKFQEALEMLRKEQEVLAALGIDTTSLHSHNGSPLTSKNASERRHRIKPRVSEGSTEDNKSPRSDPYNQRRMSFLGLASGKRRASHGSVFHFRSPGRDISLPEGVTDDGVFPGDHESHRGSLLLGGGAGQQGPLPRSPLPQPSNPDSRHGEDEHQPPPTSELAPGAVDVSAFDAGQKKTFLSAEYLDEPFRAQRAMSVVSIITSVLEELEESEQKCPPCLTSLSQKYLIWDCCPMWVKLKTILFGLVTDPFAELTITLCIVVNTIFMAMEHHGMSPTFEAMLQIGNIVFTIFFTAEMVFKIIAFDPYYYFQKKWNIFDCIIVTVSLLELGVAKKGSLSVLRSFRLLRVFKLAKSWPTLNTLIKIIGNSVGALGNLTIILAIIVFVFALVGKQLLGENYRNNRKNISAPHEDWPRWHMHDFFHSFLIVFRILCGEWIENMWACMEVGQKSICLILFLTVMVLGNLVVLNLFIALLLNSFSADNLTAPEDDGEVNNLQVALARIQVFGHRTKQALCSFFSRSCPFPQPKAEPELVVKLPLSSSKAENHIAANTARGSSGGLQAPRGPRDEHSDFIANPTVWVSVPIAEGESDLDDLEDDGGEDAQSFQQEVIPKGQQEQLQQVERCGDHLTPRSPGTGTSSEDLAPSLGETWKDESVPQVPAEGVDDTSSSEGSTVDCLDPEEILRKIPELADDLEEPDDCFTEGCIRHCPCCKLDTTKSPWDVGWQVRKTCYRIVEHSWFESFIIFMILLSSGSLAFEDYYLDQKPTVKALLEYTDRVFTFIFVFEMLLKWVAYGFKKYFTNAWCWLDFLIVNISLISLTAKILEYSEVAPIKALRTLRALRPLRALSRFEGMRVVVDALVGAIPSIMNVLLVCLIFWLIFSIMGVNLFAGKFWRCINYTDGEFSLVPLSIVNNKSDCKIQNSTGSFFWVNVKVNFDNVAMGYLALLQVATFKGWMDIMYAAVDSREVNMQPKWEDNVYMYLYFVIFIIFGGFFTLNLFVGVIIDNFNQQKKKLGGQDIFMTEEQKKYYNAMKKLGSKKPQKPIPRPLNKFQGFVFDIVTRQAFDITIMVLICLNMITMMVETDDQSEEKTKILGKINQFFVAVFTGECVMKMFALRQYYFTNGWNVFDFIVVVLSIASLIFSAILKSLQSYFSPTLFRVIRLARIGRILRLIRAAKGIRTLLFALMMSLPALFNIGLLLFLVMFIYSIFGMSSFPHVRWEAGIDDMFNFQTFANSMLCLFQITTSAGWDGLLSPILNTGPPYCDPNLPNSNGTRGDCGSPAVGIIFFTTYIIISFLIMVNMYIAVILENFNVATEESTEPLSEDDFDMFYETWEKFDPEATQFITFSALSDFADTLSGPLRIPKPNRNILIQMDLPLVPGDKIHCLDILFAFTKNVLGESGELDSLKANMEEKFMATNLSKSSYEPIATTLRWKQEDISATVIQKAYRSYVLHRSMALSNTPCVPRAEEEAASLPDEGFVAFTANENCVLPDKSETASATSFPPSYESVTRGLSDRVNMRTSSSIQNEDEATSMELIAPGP

IC50 | Structure (SMILES)
899 nM | CC1(C)CC(C(NC(=O)[C@@H]2CNC(=O)N2)c2ccc(Cl)cc2)CCN1CC(F)(F)F (single isomer, unassigned) [Example 91B, (4S)—N—((R or S)(4-chlorophenyl)((R or S)2,2-dimethyl-1-(2,2,2-trifluoroethyl)piperidin-4-yl)methyl)-2-oxoimidazolidine-4-carboxamide]
2960 nM | CC1(C)CC(C(NC(=O)[C@@H]2CNC(=O)N2)c2ccc(Cl)cc2)CCN1CC(F)(F)F (single isomer, unassigned) [Example 91C, (4S)—N—((R or S)(4-chlorophenyl)((R or S)2,2-dimethyl-1-(2,2,2-trifluoroethyl)piperidin-4-yl)methyl)-2-oxoimidazolidine-4-carboxamide]
458 nM | CC1(C)CC(C(NC(=O)[C@@H]2CNC(=O)N2)c2ccc(Cl)cc2)CCN1CC(F)(F)F (single isomer, unassigned) [Example 91D, (4S)—N—((R or S)(4-chlorophenyl)((R or S)2,2-dimethyl-1-(2,2,2-trifluoroethyl)piperidin-4-yl)methyl)-2-oxoimidazolidine-4-carboxamide]
28 nM | O=C1NC[C@@H](C(=O)NC(c2ccc(Cl)cc2)c2ncc(Cl)c(C(F)(F)F)n2)N1 (stereo partly drawn) [Example 6, (S)—N-((5-chloro-4-(trifluoromethyl)pyrimidin-2-yl)(4-chlorophenyl)methyl)-2-oxoimidazolidine-4-carboxamide]
0.7 nM | O=C1NC[C@@H](C(=O)NC(c2ccc(F)c(Cl)c2)c2ccc(F)c(Cl)c2)N1 [Example 61, (S)-N-(bis(3-chloro-4-fluorophenyl)methyl)-2-oxoimidazolidine-4-carboxamide]
604 nM | CC1(C)CC(C(NC(=O)[C@@H]2CNC(=O)N2)c2ccc(F)c(Cl)c2)C1C(F)(F)F (stereo partly drawn) [Example 68, (4S)-N-((3-chloro-4-fluorophenyl)(3,3-dimethyl-2-(trifluoromethyl)cyclobutyl)methyl)-2-oxoimidazolidine-4-carboxamide]
141 nM | O=C1NC[C@@H](C(=O)NC(c2ccc(F)c(Cl)c2)C2Cc3ccc(F)cc32)N1 (stereo partly drawn) [Example 69, (4S)-N-((3-chloro-4-fluorophenyl)(4-fluorobicyclo[4.2.0]octa-1(6),2,4-trien-7-yl)methyl)-2-oxoimidazolidine-4-carboxamide]
44 nM | O=C1NC[C@@H](C(=O)NC(c2ccc(F)c(Cl)c2)C2Cc3ccc(Cl)cc32)N1 (stereo partly drawn) [Example 71, (4S)-N-((3-chloro-4-fluorophenyl)(4-chlorobicyclo[4.2.0]-octa-1(6),2,4-trien-7-yl)methyl)-2-oxoimidazolidine-4-carboxamide]
74 nM | O=C1NC[C@@H](C(=O)NC(c2ccc(F)c(Cl)c2)c2nc3cccnc3s2)N1 (stereo partly drawn) [Example 72, (4S)-N-((3-chloro-4-fluorophenyl)(thiazolo [5,4-b]pyridin-2-yl)methyl)-2-oxoimidazolidine-4-carboxamide]
35 nM | Cc1nc(C(F)(F)F)sc1C(NC(=O)[C@@H]1CNC(=O)N1)c1ccc(Cl)cc1 (stereo partly drawn) [Example 76, (4S)-N-((4-chlorophenyl)(4-methyl-2-(trifluoro-methyl)thiazol-5-yl)methyl)-2-oxoimidazolidine-4-carboxamide]
320 nM | N#Cc1ccc(C(NC(=O)[C@@H]2CNC(=O)N2)c2ccc(F)c(Cl)c2)nc1 (stereo partly drawn) [Example 86, (4S)-N-[(3-chloro-4-fluorophenyl)(5-cyanopyridin-2-yl)methyl]-2-oxoimidazolidine-4-carboxamide]
